Species on record: Rattus norvegicus
Assay: Open TG-GATES - Regimen: Single
Type: toxicity, organism-based, Sprague-Dawley
Set-up: regimen Single, gender Male, age 6 weeks
Details: in vivo, po, 1000 mg/kg, route gavage, dose level Middle; for APTT / Bas / Eos / Fbg / Hb / Ht / Lym / MCH / MCHC / MCV / Mono / Neu / PT / Plat / RBC / Ret / WBC: tissue Blood; for KIDNEY_L / KIDNEY_R / KIDNEY_TOTAL: tissue Kidney; for LIVER: tissue Liver; for A/G / ALP / ALT / AST / BUN / CRE / Ca / Cl / DBIL / GLC / IP / K / LDH / Na / PL / RALB / TBIL / TC / TG / TP / gamma-GTP: tissue Plasma

CC(=O)[C@@]1(O)CC[C@H]2[C@@H]3C=C(Cl)C4=CC(=O)CC[C@]4(C)[C@H]3CC[C@@]21C [CHLORMADINONE]
TERMINAL_BW (3 h): 226.2 g
APTT (3 h): 23.3 s
Bas (3 h): 0%
Eos (3 h): 1%
Fbg (3 h): 302 mg/dL
Hb (3 h): 12.9 g/dL
Ht (3 h): 40.2%
Lym (3 h): 75%
MCH (3 h): 21.2 pg
MCHC (3 h): 32.1%
MCV (3 h): 66.1 fL
Mono (3 h): 2.4%
Neu (3 h): 21.2%
PT (3 h): 15.8 s
Plat (3 h): 112.9 x10_4/uL
RBC (3 h): 608.8 x10_4/ul
Ret (3 h): 9.1%
WBC (3 h): 72.4 x10_2/uL
KIDNEY_L (3 h): 1 g
KIDNEY_R (3 h): 1.1 g
KIDNEY_TOTAL (3 h): 2.1 g
LIVER (3 h): 10.9 g
A/G (3 h): 1.3
ALP (3 h): 1451.2 IU/L
ALT (3 h): 38.8 IU/L
AST (3 h): 74 IU/L
BUN (3 h): 13.8 mg/dL
CRE (3 h): 0.1 mg/dL
Ca (3 h): 11.2 mg/dL
Cl (3 h): 104.6 meq/L
DBIL (3 h): 0 mg/dL
GLC (3 h): 176.4 mg/dL
IP (3 h): 8 mg/dL
K (3 h): 4.3 meq/L
LDH (3 h): 166.6 IU/L
Na (3 h): 141.6 meq/L
PL (3 h): 134.4 mg/dL
RALB (3 h): 3.1 g/dL
TBIL (3 h): 0.028 mg/dL
TC (3 h): 74.4 mg/dL
TG (3 h): 50 mg/dL
TP (3 h): 5.5 g/dL
gamma-GTP (3 h): 2 IU/L
TERMINAL_BW (6 h): 221.4 g
APTT (6 h): 23.3 s
Bas (6 h): 0%
Eos (6 h): 0.2%
Fbg (6 h): 300.8 mg/dL
Hb (6 h): 13 g/dL
Ht (6 h): 40.1%
Lym (6 h): 72.2%
MCH (6 h): 19.8 pg
MCHC (6 h): 32.5%
MCV (6 h): 61.1 fL
Mono (6 h): 1.6%
Neu (6 h): 25.2%
PT (6 h): 15.6 s
Plat (6 h): 119.2 x10_4/uL
RBC (6 h): 655.4 x10_4/ul
Ret (6 h): 8.1%
WBC (6 h): 56.2 x10_2/uL
KIDNEY_L (6 h): 1 g
KIDNEY_R (6 h): 1 g
KIDNEY_TOTAL (6 h): 2 g
LIVER (6 h): 10.3 g
A/G (6 h): 1.2
ALP (6 h): 1445.6 IU/L
ALT (6 h): 43 IU/L
AST (6 h): 73 IU/L
BUN (6 h): 13 mg/dL
CRE (6 h): 0.2 mg/dL
Ca (6 h): 10.8 mg/dL
Cl (6 h): 105.2 meq/L
DBIL (6 h): 0.002 mg/dL
GLC (6 h): 181.2 mg/dL
IP (6 h): 10.2 mg/dL
K (6 h): 4.6 meq/L
LDH (6 h): 143.6 IU/L
Na (6 h): 140.4 meq/L
PL (6 h): 138.2 mg/dL
RALB (6 h): 3.1 g/dL
TBIL (6 h): 0.04 mg/dL
TC (6 h): 81.6 mg/dL
TG (6 h): 27.6 mg/dL
TP (6 h): 5.6 g/dL
gamma-GTP (6 h): 1.6 IU/L
TERMINAL_BW (9 h): 211.4 g
APTT (9 h): 23.8 s
Bas (9 h): 0%
Eos (9 h): 0.2%
Fbg (9 h): 336.2 mg/dL
Hb (9 h): 13.3 g/dL
Ht (9 h): 41.7%
Lym (9 h): 72.4%
MCH (9 h): 20 pg
MCHC (9 h): 32%
MCV (9 h): 62.5 fL
Mono (9 h): 1%
Neu (9 h): 25.6%
PT (9 h): 15.4 s
Plat (9 h): 110.4 x10_4/uL
RBC (9 h): 667.4 x10_4/ul
Ret (9 h): 7.4%
WBC (9 h): 39.5 x10_2/uL
KIDNEY_L (9 h): 1 g
KIDNEY_R (9 h): 1 g
KIDNEY_TOTAL (9 h): 1.9 g
LIVER (9 h): 10.5 g
A/G (9 h): 1.2
ALP (9 h): 1398.6 IU/L
ALT (9 h): 40.2 IU/L
AST (9 h): 74.6 IU/L
BUN (9 h): 13 mg/dL
CRE (9 h): 0.1 mg/dL
Ca (9 h): 10.7 mg/dL
Cl (9 h): 106.2 meq/L
DBIL (9 h): 0.002 mg/dL
GLC (9 h): 188 mg/dL
IP (9 h): 9.1 mg/dL
K (9 h): 4.3 meq/L
LDH (9 h): 157.2 IU/L
Na (9 h): 141.2 meq/L
PL (9 h): 156.2 mg/dL
RALB (9 h): 3.2 g/dL
TBIL (9 h): 0.024 mg/dL
TC (9 h): 84.4 mg/dL
TG (9 h): 81.2 mg/dL
TP (9 h): 5.7 g/dL
gamma-GTP (9 h): 1.2 IU/L
TERMINAL_BW (24 h): 231.1 g
APTT (24 h): 24.4 s
Bas (24 h): 0%
Eos (24 h): 1%
Fbg (24 h): 333.6 mg/dL
Hb (24 h): 13.2 g/dL
Ht (24 h): 40.6%
Lym (24 h): 77.8%
MCH (24 h): 20.5 pg
MCHC (24 h): 32.6%
MCV (24 h): 63 fL
Mono (24 h): 2.2%
Neu (24 h): 18.6%
PT (24 h): 15.5 s
Plat (24 h): 125.6 x10_4/uL
RBC (24 h): 644.6 x10_4/ul
Ret (24 h): 7.9%
WBC (24 h): 130.2 x10_2/uL
KIDNEY_L (24 h): 1 g
KIDNEY_R (24 h): 1.1 g
KIDNEY_TOTAL (24 h): 2.1 g
LIVER (24 h): 12.1 g
A/G (24 h): 1.2
ALP (24 h): 1702.6 IU/L
ALT (24 h): 45.8 IU/L
AST (24 h): 70.8 IU/L
BUN (24 h): 17.8 mg/dL
CRE (24 h): 0.2 mg/dL
Ca (24 h): 11.1 mg/dL
Cl (24 h): 105.8 meq/L
DBIL (24 h): 0 mg/dL
GLC (24 h): 193.4 mg/dL
IP (24 h): 7.8 mg/dL
K (24 h): 4.5 meq/L
LDH (24 h): 184.2 IU/L
Na (24 h): 140.8 meq/L
PL (24 h): 168 mg/dL
RALB (24 h): 3.3 g/dL
TBIL (24 h): 0 mg/dL
TC (24 h): 77.2 mg/dL
TG (24 h): 188.8 mg/dL
TP (24 h): 5.9 g/dL
gamma-GTP (24 h): 1.6 IU/L

— ChEMBL document CHEMBL3885861, “Open TG-GATES”
